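Cultured in 96-well plates, cells were exposed to test compound for 48 hours across five concentrations. At the GI50, growth is halved.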 The source made the active and inactive calls. Rule as the data show it: active = GI50 up to about 1.1 µM and inactive = higher. A value given as a limit tells only on which side of the number the result lay.

Test systems include RPMI-8226; K562; BT-549; IGROV-1; MDA-MB-231; SNB-75; SF-295; NCI/ADR-RES; CCRF-CEM; HCC 2998; SW-620; HCT-15; ACHN; SN12C; NCI-H226; RXF 393; HOP-92; UACC-257; HCT-116.
Holding throughout (assay): DTP human tumour cell line panel, 48 h

Regarding `CCCCCCOc1ccc(C(=O)NO)cc1`, the GI50 (commonly the concentration that inhibits growth by half) with RPMI-8226 is 2.82 µM (inactive); in the test on K562 it was 5.22 µM (inactive); with BT-549, 15.8 µM (inactive); in the test on IGROV-1 it was 3.61 µM (inactive); with MDA-MB-231, 11 µM (inactive); with SNB-75, 13.4 µM (inactive). For the same compound, the GI50 is 8.26 µM (inactive) in the test on SF-295; 3.08 µM (inactive) with NCI/ADR-RES; 0.362 µM (active) in the test with CCRF-CEM; 9.25 µM (inactive) in the test with HCC 2998; 5.02 µM (inactive) with SW-620; 1.61 µM in the test with HCT-15. Further, the GI50 in the test on ACHN was 5.07 µM (inactive); in the test with SN12C it was 10.2 µM (inactive); in the test with NCI-H226, 9.46 µM (inactive); with RXF 393, 11.3 µM (inactive); in the test on HOP-92, 13.9 µM (inactive); with UACC-257, 22.8 µM (inactive). For the same compound, the GI50 in the test on HCT-116 is 8.53 µM (inactive).
In the case of `Nc1nc(=S)n(-c2ccc(Cl)cc2)c2nc3ccccc3cc12`, the GI50 in the test with RPMI-8226 is 59.6 µM (inactive); in the test with K562, 66.7 µM (inactive); with BT-549, 19.1 µM (inactive); in the test on IGROV-1, 1.69 µM (inactive); in the test with MDA-MB-231, 60.5 µM (inactive); in the test with SNB-75, 43.5 µM (inactive). The GI50 in the test on SF-295 was 64.6 µM (inactive); with NCI/ADR-RES, > 100 µM (inactive); in the test with CCRF-CEM, 42.4 µM (inactive); in the test on HCC 2998 it was 64.6 µM (inactive); with SW-620, 95.5 µM (inactive); with HCT-15, 39.9 µM. For the same compound, the GI50 in the test with ACHN is 18.8 µM (inactive); in the test on SN12C, > 100 µM (inactive); with NCI-H226, 50.6 µM (inactive); in the test with RXF 393, 57.9 µM (inactive); in the test on HOP-92, 9.82 µM (inactive); in the test with UACC-257 it was > 100 µM (inactive). In addition, the GI50 with HCT-116 was 40.7 µM (inactive).
On to `Cc1nc2c(-c3ccccc3)[nH]c(C)c2c(=O)o1`, for which the GI50 in the test with RPMI-8226 was 32.7 µM (inactive); in the test on K562, 40.1 µM (inactive); with BT-549, 24.8 µM (inactive); in the test with IGROV-1, 80.5 µM (inactive); with MDA-MB-231, 31.2 µM (inactive); with SNB-75 it was 23.9 µM (inactive). The GI50 was 79.6 µM (inactive) with SF-295; > 100 µM (inactive) with NCI/ADR-RES; > 100 µM (inactive) in the test on CCRF-CEM; 57.5 µM (inactive) in the test on HCC 2998; > 100 µM (inactive) in the test with SW-620; 30.8 µM in the test with HCT-15. The GI50 in the test on ACHN is 43.8 µM (inactive); with SN12C it was > 100 µM (inactive); in the test with NCI-H226, 87.5 µM (inactive); in the test on RXF 393, 35.9 µM (inactive); with HOP-92, > 100 µM (inactive); in the test with UACC-257, > 100 µM (inactive). For the same compound, the GI50 with HCT-116 is 45.6 µM (inactive).
For `O=C1NC(N2CCOCC2)=N/C1=C\c1cccs1`, the GI50 was > 100 µM (inactive) in the test on RPMI-8226; > 100 µM (inactive) in the test with BT-549; > 100 µM (inactive) in the test on IGROV-1; > 100 µM (inactive) in the test with MDA-MB-231; 30.2 µM (inactive) in the test with SNB-75; > 100 µM (inactive) with SF-295. The GI50 was > 100 µM (inactive) in the test with NCI/ADR-RES; > 100 µM (inactive) with CCRF-CEM; 4.65 µM (inactive) with HCC 2998; > 100 µM (inactive) with SW-620; > 100 µM in the test on HCT-15; > 100 µM (inactive) in the test on ACHN. The GI50 in the test on SN12C, in the test with NCI-H226, in the test with RXF 393, in the test on HOP-92, with UACC-257 and in the test on HCT-116 was > 100 µM (inactive) each time.
As for `Cc1cc(C)c2c(=N)c3ccccc3n(CCCCCCCCn3c4ccccc4c(=N)c4c(C)cc(C)nc43)c2n1`, the GI50 is 0.239 µM (active) in the test on RPMI-8226; 0.19 µM (active) in the test with K562; 1.85 µM (inactive) with BT-549; 1.33 µM (inactive) in the test on IGROV-1; 1.84 µM (inactive) in the test with MDA-MB-231; 0.596 µM (active) in the test with SNB-75. Further, the GI50 in the test with SF-295 was 1.5 µM (inactive); with NCI/ADR-RES, 1.6 µM (inactive); in the test on CCRF-CEM, 0.204 µM (active); in the test on HCC 2998 it was 0.631 µM (active); with SW-620, 0.238 µM (active); in the test with HCT-15, 0.2 µM. For the same compound, the GI50 with ACHN is 1.56 µM (inactive); in the test on SN12C, 1.59 µM (inactive); in the test with NCI-H226 it was 1.55 µM (inactive); in the test with RXF 393 it was 1.32 µM (inactive); in the test on HOP-92, 1.26 µM (inactive); with UACC-257, 1.75 µM (inactive). Besides, the GI50 with HCT-116 was 0.353 µM (active).
As for `O=C(O)/C=C/c1c2ccc(=O)c(O)c-2oc2c(O)c(O)ccc12`, the GI50 was 23.2 µM (inactive) in the test with RPMI-8226; 21.7 µM (inactive) in the test on K562; 83.9 µM (inactive) with BT-549; 82.6 µM (inactive) in the test on IGROV-1; 20.8 µM (inactive) in the test with MDA-MB-231; 48 µM (inactive) in the test with SNB-75. For the same compound, the GI50 in the test with SF-295 is 24.4 µM (inactive); in the test on NCI/ADR-RES it was 65.3 µM (inactive); in the test on CCRF-CEM, 9.59 µM (inactive); in the test on HCC 2998 it was > 100 µM (inactive); in the test on SW-620, 20.7 µM (inactive); in the test on HCT-15, 61.9 µM. Moreover, the GI50 in the test with ACHN is 30.8 µM (inactive); in the test with SN12C it was 15.3 µM (inactive); in the test with NCI-H226 it was 70.8 µM (inactive); with RXF 393 it was > 100 µM (inactive); in the test on HOP-92, > 100 µM (inactive); with UACC-257, > 100 µM (inactive). The GI50 in the test with HCT-116 was 17 µM (inactive).

The record behind these values is ChEMBL document CHEMBL1201862, “PubChem BioAssay data set” (2004).
